Measured values: US9221746B2, “Homo- and hetero-polyamino-acid derivatives of fullerene C60, method for producing same, and pharmaceutical compositions based on said derivatives” (priority 2011, dated 2015)
Read-outs that look alike come from different tables or passages of the source. Marks after values point to notes of the source that are not given here.

Legend:
[1] = system: A/IIV-Moscow/01/2009 (H1N1)swl influenza virus; experiment: Reduction of influenza virus reproduction in MDCK cell culture (ELISA); assay type: cell-based; details: for Percent reduction of influenza virus reproduction in MDCK cell culture relative to control, average values: average of the three experiments
Description: The agent was diluted with DMSO (5 mg substance+0.5 mL DMSO), followed by addition of 4.5 mL MEM cell cultural medium to obtain in this way a stock solution with a concentration of 1.0 […].
The antiviral activity was ascertained from the reduction of influenza virus reproduction in the MDCK cell culture, as recognized by ELISA.
For this purpose, MDCK cells were grown on 96-well plates to obtain a complete monolayer, washed from the growth medium, and added with substances in a twofold concentration in 100 mcL MEM medium. Infection with the virus in a working dose ranging from 100 to 1000 TCD50 was carried out in two protocols: 2 hours following the insertion of the substances and simultaneously. The plates were incubated in a thermostat filled with CO2 for 24 hours at 37° C. Following the incubation, the medium was removed and cells were fixed by 80% acetone in PBS for 15 minutes and then well dried, and ELISA was performed by consecutive adsorption of specific reagents, namely, monoclonal antibodies, conjugate, and substrate (orthophenylenediamine). The degree of reaction was monitored by measuring optical density at 492 nm on a Biokom spectrophotometer. Each virus dilution was studied in three replicas, for which an average optical density (OD) value was calculated. Percent inhibition was determined as the quotient of the difference between the experimental OD and the OD of the cell control, divided by the difference between the OD of the virus control and the OD of the cell control, multiplied by 100%. The data gained in this way were used to determine the minimal concentration of the agent causing the 50.0% inhibition of viral reproduction (MIC50).
The inhibition of A(H1N1) influenza virus replication was ascertained in three experiments with different multiplicities of infection.

[2] = system: L1210 leukemia; assay type: in vivo, mice; details: for ILT, %: increase in lifetime compared to the control; for Average body weight gain, M ± m / Percent inhibition relative to control / Average weight gain, M ± m: ascite development
Description: (§1) These studies were carried out at the Institute for Toxicology, St. Petersburg, 2006, according to “Guidelines for the Study of Antitumor Activity of Pharmacological Agents” (“Manual on Experimental (Preclinical) Study of New Pharmacological Agents,” Ministry of Public Health of the Russian Federation, Remedium, Moscow, 2000, pp. 319-325).
(§2) The L1210 leukemia, breast adenocarcinoma Ca-755, and Lewis carcinoma (3LL) tumor cell strain were purchased from the Petrov Research Institute for Oncology, the Ministry of Public Health of the Russian Federation (St. Petersburg).
DBA/2 line mice with transplanted L1210 leukemia cells. Mouse ages: 6 to 8 weeks; body weights: 19 to 25 g.
(§3) The antitumor effect was ascertained through the following parameters: • ascite accumulation as animal body weight gain; • the lifetime of animals; and • tumor growth. The larger dimension of the tumor (length) and the smaller dimension normal thereto (width) were measured. The tumor volume was calculated, and the inhibition of tumor growth was calculated by a formula. The ascertainment criterion was the day when each individual tumor reached a volume of 500 mm^3.
During the experiment, the animals were weighed daily with the goal of evaluating ascite accumulation and studying the agents compared on this process.

[3] = system: breast adenocarcinoma Ca-755; assay type: in vivo, mice; details: for ILT, %: increase in lifetime compared to the control
Description: as §1, §2
C 57 BL/6J line male mice with transplanted Ca-755 cells. Mouse ages: 6 to 8 weeks; body weights: 19 to 25 g.
as §3

For “Fullerene Poly(Aminocaproic Acid) of Formula C60(H3){NH(CH2)5COO—}3{NH3^+(CH2)5COOH}3 [Agent No. 1]”, the “Percent (%) reduction of influenza virus reproduction in MDCK cell culture relative to control” value ([1]; 6.25 mcg/mL, 2 h prior to infection, 1st value of cell (experiments with different multiplicities of infection)) was 27.0%, the “Percent (%) reduction of influenza virus reproduction in MDCK cell culture relative to control” value ([1]; 6.25 mcg/mL, 2 h prior to infection, 2nd value of cell) was 28.0% and the “Percent (%) reduction of influenza virus reproduction in MDCK cell culture relative to control” value ([1]; 6.25 mcg/mL, 2 h prior to infection, 3rd value of cell) was 0%. The “Percent reduction of influenza virus reproduction in MDCK cell culture relative to control, average values” ([1]; 6.25 mcg/mL, 2 h prior to infection) was 18.0%, the “Percent (%) reduction of influenza virus reproduction in MDCK cell culture relative to control” value ([1]; 6.25 mcg/mL, simultaneously with infection, 1st value of cell) was 18.0% and the “Percent (%) reduction of influenza virus reproduction in MDCK cell culture relative to control” value ([1]; 6.25 mcg/mL, simultaneously with infection, 2nd value of cell) was 0%. The “Percent (%) reduction of influenza virus reproduction in MDCK cell culture relative to control” value ([1]; 6.25 mcg/mL, simultaneously with infection, 3rd value of cell) was 0%, the “Percent reduction of influenza virus reproduction in MDCK cell culture relative to control, average values” ([1]; 6.25 mcg/mL, simultaneously with infection) was 6.0% and the “Percent (%) reduction of influenza virus reproduction in MDCK cell culture relative to control” value ([1]; 12.5 mcg/mL, 2 h prior to infection, 1st value of cell) was 47.0%. For the same substance, the “Percent (%) reduction of influenza virus reproduction in MDCK cell culture relative to control” value ([1]; 12.5 mcg/mL, 2 h prior to infection, 2nd value of cell) was 74.0%, the “Percent (%) reduction of influenza virus reproduction in MDCK cell culture relative to control” value ([1]; 12.5 mcg/mL, 2 h prior to infection, 3rd value of cell) was 9.5% and the “Percent reduction of influenza virus reproduction in MDCK cell culture relative to control, average values” ([1]; 12.5 mcg/mL, 2 h prior to infection) was 44.0%. For the same substance, the “Percent (%) reduction of influenza virus reproduction in MDCK cell culture relative to control” value ([1]; 12.5 mcg/mL, simultaneously with infection, 1st value of cell) was 39.0%, the “Percent (%) reduction of influenza virus reproduction in MDCK cell culture relative to control” value ([1]; 12.5 mcg/mL, simultaneously with infection, 2nd value of cell) was 13.0% and the “Percent (%) reduction of influenza virus reproduction in MDCK cell culture relative to control” value ([1]; 12.5 mcg/mL, simultaneously with infection, 3rd value of cell) was 0%. The “Percent reduction of influenza virus reproduction in MDCK cell culture relative to control, average values” ([1]; 12.5 mcg/mL, simultaneously with infection) was 26%, the “Percent (%) reduction of influenza virus reproduction in MDCK cell culture relative to control” value ([1]; 25.0 mcg/mL, 2 h prior to infection, 1st value of cell) was 41.0% and the “Percent (%) reduction of influenza virus reproduction in MDCK cell culture relative to control” value ([1]; 25.0 mcg/mL, 2 h prior to infection, 2nd value of cell) was 79.0%. For the same substance, the “Percent (%) reduction of influenza virus reproduction in MDCK cell culture relative to control” value ([1]; 25.0 mcg/mL, 2 h prior to infection, 3rd value of cell) was 12%, the “Percent reduction of influenza virus reproduction in MDCK cell culture relative to control, average values” ([1]; 25.0 mcg/mL, 2 h prior to infection) was 44.0% and the “Percent (%) reduction of influenza virus reproduction in MDCK cell culture relative to control” value ([1]; 25.0 mcg/mL, simultaneously with infection, 1st value of cell) was 40.0%. The “Percent (%) reduction of influenza virus reproduction in MDCK cell culture relative to control” value ([1]; 25.0 mcg/mL, simultaneously with infection, 2nd value of cell) was 0%, the “Percent reduction of influenza virus reproduction in MDCK cell culture relative to control, average values” ([1]; 25.0 mcg/mL, simultaneously with infection) was 20.0% and the “Percent (%) reduction of influenza virus reproduction in MDCK cell culture relative to control” value ([1]; 50.0 mcg/mL, 2 h prior to infection, 1st value of cell) was 28.0%. The “Percent (%) reduction of influenza virus reproduction in MDCK cell culture relative to control” value ([1]; 50.0 mcg/mL, 2 h prior to infection, 2nd value of cell) was 72.0%, the “Percent (%) reduction of influenza virus reproduction in MDCK cell culture relative to control” value ([1]; 50.0 mcg/mL, 2 h prior to infection, 3rd value of cell) was 31.0% and the “Percent reduction of influenza virus reproduction in MDCK cell culture relative to control, average values” ([1]; 50.0 mcg/mL, 2 h prior to infection) was 44.0%. For the same substance, the “Percent (%) reduction of influenza virus reproduction in MDCK cell culture relative to control” value ([1]; 50.0 mcg/mL, simultaneously with infection, 1st value of cell) was 33.0%, the “Percent (%) reduction of influenza virus reproduction in MDCK cell culture relative to control” value ([1]; 50.0 mcg/mL, simultaneously with infection, 2nd value of cell) was 10.0% and the “Percent reduction of influenza virus reproduction in MDCK cell culture relative to control, average values” ([1]; 50.0 mcg/mL, simultaneously with infection) was 22.0%. For the same substance, the “Percent (%) reduction of influenza virus reproduction in MDCK cell culture relative to control” value ([1]; 100.0 mcg/mL, 2 h prior to infection, 1st value of cell) was 4.0%, the “Percent (%) reduction of influenza virus reproduction in MDCK cell culture relative to control” value ([1]; 100.0 mcg/mL, 2 h prior to infection, 2nd value of cell) was 0% and the “Percent (%) reduction of influenza virus reproduction in MDCK cell culture relative to control” value ([1]; 100.0 mcg/mL, 2 h prior to infection, 3rd value of cell) was 20.0%. The “Percent reduction of influenza virus reproduction in MDCK cell culture relative to control, average values” ([1]; 100.0 mcg/mL, 2 h prior to infection) was 8%, the “Percent (%) reduction of influenza virus reproduction in MDCK cell culture relative to control” value ([1]; 100.0 mcg/mL, simultaneously with infection, 1st value of cell) was 29.0% and the “Percent (%) reduction of influenza virus reproduction in MDCK cell culture relative to control” value ([1]; 100.0 mcg/mL, simultaneously with infection, 2nd value of cell) was 28.0%. The “Percent reduction of influenza virus reproduction in MDCK cell culture relative to control, average values” ([1]; 100.0 mcg/mL, simultaneously with infection) was 29.0%, the “reproduction inhibitory activity in the MDCK cell culture” value ([1]; different dilutions of the agent) was “high reproduction inhibitory activity” and the “ALT in days, M ± m” value ([2]; 100 mg/kg) was 10.7 ± 37 days. The “ILT, %” value ([2]; 100 mg/kg) was 78.33%, the “ALT in days, M ± m” value ([2]; 100 mg/kg, listed as agent) was 10.7 ± 0.37 days and the average lifetime ([2]; 200 mg/kg) was 10.60 ± 0.37 days. The “percent increase in lifetime compared to the control” value ([2]; 200 mg/kg) was 76.67%, the “ALT in days, M ± m” value ([2]; 250 mg/kg) was 10.60 ± 37 days and the “factor by which average body weight gain is lower at 250 mg/kg than at 100 mg/kg” value ([2]; 250 mg/kg versus 100 mg/kg) was 1.5. For the same substance, the “ILT, %” value ([2]; 250 mg/kg) was 76.67%, the “Average body weight gain, M ± m” value ([2]; 100 mg/kg, day 1) was 0.3 ± 0.2 and the “Average body weight gain, M ± m” value ([2]; 100 mg/kg, day 2) was 0.8 ± 0.4. The “Average body weight gain, M ± m” value ([2]; 100 mg/kg, day 3) was 2.5 ± 0.5, the “Percent inhibition relative to control” value ([2]; 100 mg/kg, day 3) was 50.0%* and the “Average body weight gain, M ± m” value ([2]; 100 mg/kg, day 4) was 4.2 ± 1.0. For the same substance, the “Percent inhibition relative to control” value ([2]; 100 mg/kg, day 4) was 63.2%*, the “Average body weight gain, M ± m” value ([2]; 100 mg/kg, day 5) was 8.4 ± 1.2 and the “Percent inhibition relative to control” value ([2]; 100 mg/kg, day 5) was 48.5%*. The “Average body weight gain, M ± m” value ([2]; 100 mg/kg, day 6) was 12.1 ± 2.1, the “Percent inhibition relative to control” value ([2]; 100 mg/kg, day 6) was 42.9%* and the “Average body weight gain, M ± m” value ([2]; 100 mg/kg, day 7) was 14.2 ± 2.2. For the same substance, the “Percent inhibition relative to control” value ([2]; 100 mg/kg, day 7) was 46.0%*, the “Average weight gain, M ± m” value ([2]; 250 mg/kg, day 1) was 0.3 ± 0.1 and the “Average weight gain, M ± m” value ([2]; 250 mg/kg, day 2) was 0.5 ± 0.3. The “Average weight gain, M ± m” value ([2]; 250 mg/kg, day 3) was 1.1 ± 0.4, the “Percent inhibition relative to control” value ([2]; 250 mg/kg, day 3) was 78.0%* and the “Average weight gain, M ± m” value ([2]; 250 mg/kg, day 4) was 2.8 ± 0.9. For the same substance, the “Percent inhibition relative to control” value ([2]; 250 mg/kg, day 4) was 75.4%*, the “Average weight gain, M ± m” value ([2]; 250 mg/kg, day 5) was 4.7 ± 1.2 and the “Percent inhibition relative to control” value ([2]; 250 mg/kg, day 5) was 71.2%*. The “Average weight gain, M ± m” value ([2]; 250 mg/kg, day 6) was 8.4 ± 1.6, the “Percent inhibition relative to control” value ([2]; 250 mg/kg, day 6) was 60.4%* and the “Average weight gain, M ± m” value ([2]; 250 mg/kg, day 7) was 10.0 ± 1.3. The “Percent inhibition relative to control” value ([2]; 250 mg/kg, day 7) was 62.0%*, the intoxication signatures ([2]; mouse, in vivo) was “No intoxication signatures were detected” and the “ALT in days, M ± m” value ([3]; 100 mg/kg) was 71.9 ± 2.58 days. The “ILT, %” value ([3]; 100 mg/kg) was 89.71%, the “ALT in days, M ± m” value ([3]; 100 mg/kg, listed as agent) was 71.9 ± 2.58 days and the average lifetime ([3]; 200 mg/kg) was 73.4+0.92 days. For the same substance, the “percent increase in lifetime compared to the control” value ([3]; 200 mg/kg) was 93.67%, the “ALT in days, M ± m” value ([3]; 250 mg/kg) was 73.40 ± 0.92 days and the “ILT, %” value ([3]; 250 mg/kg) was 93.67%. For the same substance, the intoxication signatures ([3]; mouse, in vivo) was “No intoxication signatures were detected”.
